For 26 compounds, inhibition results are on record in patent US4695580A, “Phenylserine derivatives and processes for preparing the same” (Sumitomo Pharmaceuticals Company, Ltd., priority 1983, dated 1987).

Experiment [1] deals with SRS-A. The experiment is described as follows: Anti-SRS-A activity by Magnus method, isolated guinea pig ileum. Conditions: Cavia porcellus, read-out: Inhibition (anti-SRS-A activity, inhibition rate); for inhibition at 1 µg/mL: 5 min, drug at 10^-6 g/ml (values without *); for inhibition at 1 µM: drug at 10^-6 M (values marked *). It is filed as cell-based. The procedure: Anti-SRS-A activity of the drugs (the compounds of the present invention) was assayed by using isolated ileum of guinea pig (weighing 300-400 g, male).
SRS-A sample was prepared as follows.
Male albino guinea-pigs were administered by intraperitoneal and subcutaneous injection of 50 mg ovalbumin emulsified with a half amount of Freund's complete adjuvant every other day (total three times). 4 Weeks after the administration lungs were isolated from guinea-pigs and chopped into small pieces. The tissue was placed in Tyrode solution containing indomethacin (1μg/ml) and incubated at 37° C. for 15 min. The incubated solution was then centrifuged and the supernatant fluid was used for the SRS-A sample.
The anti-SRS-A activity was assayed by Magnus method, i.e. a modified method by Eda et al. [cf. Bulletin of Pharmacology in Japan, 66, 194-213 (1970)] using isolated guinea pig ileum. That is, an isolated ileum of guinea pig was hung within an organ bath which was filled with a Tyrode solution containing mepyramine (0.4 μg/ml) and atropine (0.35,/μg/ml) at 37° C. under aeration. The SRS-A sample was given until reproducible contractions were obtained. A solution of the drug (the compounds of the present inventions was added thereto in the final concentration of 10^-6 g/ml or 10^-6 M. After 5 minutes, the SRS-A sample was again acted, and the change of contractile response was measured. Based on the change of contractile response, the anti-SRS-A activity (inhibition rate) was calculated by the following equation: [formula] wherein
a^1 : Contractile response before administration of a drug.
a^2 : Contractile response after administration of a drug.

For experiment [2], the target named is T1, 5-lipoxygenase (Cavia porcellus, UniProt A0A286X958).
T1 construct: leucocytes isolated from abdominal cavity of guinea pig; endogenous in cells; host or cells: leucocytes isolated from the abdominal cavity of guinea pig (intact cells)
T1 sequence (A0A286X958 1-674): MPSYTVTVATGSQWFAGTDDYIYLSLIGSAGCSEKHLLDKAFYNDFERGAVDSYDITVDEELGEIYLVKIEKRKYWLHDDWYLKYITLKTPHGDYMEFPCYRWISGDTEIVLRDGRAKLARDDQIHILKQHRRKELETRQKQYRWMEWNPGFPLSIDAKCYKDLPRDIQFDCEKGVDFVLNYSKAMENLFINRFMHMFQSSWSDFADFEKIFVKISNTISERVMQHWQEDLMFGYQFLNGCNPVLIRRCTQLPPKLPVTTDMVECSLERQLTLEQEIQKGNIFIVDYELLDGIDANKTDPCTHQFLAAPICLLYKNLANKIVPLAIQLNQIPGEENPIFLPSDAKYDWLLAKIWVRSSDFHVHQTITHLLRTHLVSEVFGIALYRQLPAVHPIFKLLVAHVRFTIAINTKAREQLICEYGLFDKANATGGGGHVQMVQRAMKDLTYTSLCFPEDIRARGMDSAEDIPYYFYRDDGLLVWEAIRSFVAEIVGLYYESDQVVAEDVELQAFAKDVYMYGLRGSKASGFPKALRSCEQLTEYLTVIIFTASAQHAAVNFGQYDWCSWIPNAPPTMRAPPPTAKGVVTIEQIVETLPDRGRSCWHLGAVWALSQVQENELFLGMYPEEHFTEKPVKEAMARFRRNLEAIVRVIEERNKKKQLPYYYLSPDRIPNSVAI
The experiment is described as follows: 5-Lipoxygenase inhibitory activity (inhibition of 5-HETE production) in guinea pig abdominal leucocytes. It is filed as cell-based. The note with it: 10 μM compound, A 23187, 14C-arachidonic acid, read-out: Inhibition (5-HETE production, inhibition rate). The procedure: The inhibitory activity was assayed in the same manner as described by J. Harvey et al. That is, leucocytes isolated from abdominal cavity of guinea pig were suspended in Krebs Ringer buffer (KRB, pH 7.4) in a concentration of 2.2×10^7 […]. The leucocytes suspension (935 μl) was preincubated with shaking at 37° C. for 10 minutes, and thereto was added a solution (10 μl) of test drugs (the compounds of the present invention) in dimethylsulfoxide (DMSO) (the final concentration of the compound being 10 μM in the solution). The mixture was incubated for 10 minutes, and then, ^14 C-arachidonic acid (0.1 μCi, 50 μl) (in 5% ethanol/KRB) and A 23187 (J. Pharmacol. Methods, 9, 147-155(1983), 5 μg in 5 μl DMSO) were added thereto, and the mixture was further incubated for 10 minutes. Ice-cooled 0.2M aqueous citric acid solution (100 μl) was added thereto in order to stop the reaction, and then, water (4 ml) was further added thereto. The mixture was twice extracted with ethyl acetate (each 2.5 ml), and the organic layer was distilled to dryness under nitrogen. The resulting residue was dissolved in ethyl acetate and the solution was applied onto a TLC plate. After developing with toluene-dioxane-acetic acid (65:34:1.5 V/V), 5-HETE (5-hydroxyeicosatetraenoic acid) produced by 5-lipoxygenase was measured with TLC scanner. The inhibition rate (%) was calculated by comparing the amount of 5-HETE between the addition and non-addition of a drug by the following equation: [formula] wherein
b^1 : Amount of produced 5-HETE in case of non-addition of a drug.
b^2 Amount of produced 5-HETE in case of addition of a drug.

Where a name gives a salt, the structure may show the parent alone. Bounds are passed on as bounds.

On to `CC(CCc1ccccc1)N[C@H](C(=O)NN)[C@H](O)c1ccc(O)c(O)c1` (relative stereo) [Compd. No. 178, DL-threo-3-(3,4-dihydroxyphenyl)-N-(1-methyl-3-phenylpropyl)serine hydrazide], for which, in experiment [1], the inhibition at 1 µg/mL was 81%.
Turning to `CCOC(=O)[C@@H](NC(C)CCc1ccccc1)[C@H](O)c1ccc(O)c(O)c1` (relative stereo) [Compd. No. 132, DL-Threo-3-(3,4-dihydroxyphenyl)-N-(1-methyl-3-phenylpropyl)serine ethyl ester], the inhibition at 10 µM in experiment [2] is above 70%. Also, the inhibition at 1 µg/mL in experiment [1] worked out at 82%.
Take `CC(CCc1ccc(F)cc1)N[C@H](C(=O)N1CCCC1)[C@H](O)c1ccc(O)c(O)c1` (some centres unmarked) [compound 29]: the inhibition at 1 µM in experiment [1] was 97%.
`CC(CCCCC(=O)Nc1ccc(C(F)(F)F)cc1)N[C@H](C(=O)N1CCCC1)[C@H](O)c1ccc(O)c(O)c1` (some centres unmarked) [compound 42]: the inhibition at 1 µM in experiment [1] stood at 97%.
Consider `COC(=O)[C@@H]1CCCN1C(=O)[C@@H](NC(C)CCc1ccccc1)[C@H](O)c1ccc(O)c(O)c1` (some centres unmarked) [compound 65], for which the inhibition at 1 µM in experiment [1] turned out to be 85%.
With `CC(CCc1ccccc1)N[C@H](C(=O)OC(C)C)[C@H](O)c1ccc(O)c(O)c1` (relative stereo) [Compd. No. 158, DL-threo-3-(3,4-dihydroxyphenyl)-N-(1-methyl-3-phenylpropyl)serine isopropyl ester], in experiment [1], the inhibition at 1 µg/mL was found to be 96%.
For the compound `CC(CCc1ccccc1)N[C@H](C(=O)N1CCCC1)[C@H](O)c1ccc(O)c(O)c1` (relative stereo) [Compd. No. 19, DL-Threo-3-(3,4-dihydroxyphenyl)-N-(1-methyl-3phenylpropyl)serine pyrrolidine amide], in experiment [2], the inhibition at 10 µM was above 70%. In addition, the inhibition at 1 µg/mL in experiment [1] worked out at 100%.
Regarding `CC(C)COC(=O)[C@@H](NC(C)CCc1ccccc1)[C@H](O)c1ccc(O)c(O)c1` (relative stereo) [Compd. No. 170, DL-threo-3-(3,4-dihydroxyphenyl)-N-(1-methyl-3-phenylpropyl)serine isobutyl ester], in experiment [1], the inhibition at 1 µg/mL was found to be 85%.
Consider `O=C([C@@H](NCCCc1ccccc1)[C@H](O)c1ccc(O)c(O)c1)N1CCCC1` (relative stereo) [Compd. No. 13], for which the inhibition at 1 µM in experiment [1] is 100%.
In the case of `COC(=O)[C@@H](NC(C)CCC(C)C)[C@H](O)c1ccc(O)c(O)c1` (relative stereo) [compound 142], the inhibition at 10 µM in experiment [2] is above 70%. Besides, the inhibition at 1 µg/mL in experiment [1] came out at 91%.
For `COC(=O)[C@@H](NC(C)CCc1ccc(OC)cc1)[C@H](O)c1ccc(O)c(O)c1` (relative stereo) [Compd. No. 122, DL-threo-3-(3,4-dihydroxyphenyl)-N-[1-methyl-3-(p-methoxyphenyl)propyl]serine methyl ester], the inhibition at 10 µM in experiment [2] is above 70%. Moreover, in experiment [1], the inhibition at 1 µg/mL amounted to 94%.
Regarding `CC(CCc1ccccc1)N[C@H](C(=O)N1CCc2ccccc21)[C@H](O)c1ccc(O)c(O)c1` (relative stereo) [compound 77], in experiment [2], the inhibition at 10 µM was above 70%. Moreover, the inhibition at 1 µM in experiment [1] came to 96%.
As to `CC(CCc1ccccc1)N[C@H](C(=O)N1CCCC1)[C@H](O)c1ccc(O)c(O)c1` (stereo partly drawn) [Compd. No. 10, L-Threo-3-(3,4-dihydroxyphenyl)-N-(1-methyl-3-phenylpropyl)serine pyrrolidine amide], in experiment [1], the inhibition at 1 µM came to 100%.
`CC(CCc1ccccc1)N[C@H](C(N)=O)[C@H](O)c1ccc(O)c(O)c1` (relative stereo) [compound 177, DL-threo-3-(3,4-dihydroxphenyl)-N-(1-methyl-3-phenylpropyl)serine amide]: the inhibition at 1 µg/mL in experiment [1] was 86%.
Turning to `COC(=O)[C@H](NC(C)CCc1ccccc1)[C@@H](O)c1ccc(O)c(O)c1` (stereo partly drawn) [Compd. No. 156, D-threo-3-(3,4-dihydroxyphenyl)-N-(1-methyl-3-phenylpropyl)serine methyl ester], the inhibition at 1 µg/mL in experiment [1] turned out to be 90%.
`CC(CCc1cccc2ccccc12)N[C@H](C(=O)N1CCCC1)[C@H](O)c1ccc(O)c(O)c1` (some centres unmarked) [compound 34]: the inhibition at 1 µM in experiment [1] was determined as 92%.
Take `COc1cc(C)c(CCC(C)N[C@H](C(=O)N2CCCC2)[C@H](O)c2ccc(O)c(O)c2)c(C)c1C` (some centres unmarked) [compound 28]: the inhibition at 1 µM in experiment [1] is 94%.
Consider `COC(=O)[C@@H](NC(C)CCCCC(=O)Nc1ccc(C(F)(F)F)cc1)[C@H](O)c1ccc(O)c(O)c1` (relative stereo) [compound 146], for which, in experiment [1], the inhibition at 1 µg/mL came out at 94%.
With `CCCCc1ccc(NC(=O)CCCCC(C)N[C@H](C(=O)N2CCCC2)[C@H](O)c2ccc(O)c(O)c2)cc1` (some centres unmarked) [compound 41], the inhibition at 1 µM in experiment [1] turned out to be 81%.
For the compound `COC(=O)[C@@H](NC(C)CCc1ccccc1)[C@H](O)c1ccc(O)c(O)c1` (relative stereo) [Compd. No. 120, DL-threo-3-(3,4-dihydroxyphenyl)-N-(1-methyl-3-phenylpropyl)serine methyl ester], the inhibition at 1 µg/mL in experiment [1] worked out at 97%.
Regarding `CC(CCc1ccco1)N[C@H](C(=O)N1CCCC1)[C@H](O)c1ccc(O)c(O)c1` (some centres unmarked) [compound 35], in experiment [1], the inhibition at 1 µM came to 87%.
Turning to `COC(=O)[C@@H](NC(C)CCc1ccc(O)cc1)[C@H](O)c1ccc(O)c(O)c1` (relative stereo) [compound 143], the inhibition at 1 µg/mL in experiment [1] came to 83%.
Take `CC(CCc1ccccc1)N[C@H](CO)[C@H](O)c1ccc(O)c(O)c1` (relative stereo) [Compd. No. 183, DL-threo-1-(3,4-dihydroxyphenyl)-2-(1-methyl-3-phenylpropyl)amino-1,3-propanediol 1/2 oxalate]: the inhibition at 10 µM in experiment [2] was above 70%. For the same compound, in experiment [1], the inhibition at 1 µg/mL was determined as 97%.
Take `CNC(=O)[C@@H](NC(C)CCc1ccccc1)[C@H](O)c1ccc(O)c(O)c1` (relative stereo) [compound 48]: the inhibition at 1 µg/mL in experiment [1] came to 100%.
Still for that read-out and setting: next, `CCCCc1ccc(NC(=O)CCCCC(C)N[C@H](C(=O)OC)[C@H](O)c2ccc(O)c(O)c2)cc1` (relative stereo) [compound 147]: 100%; `CC(CCc1ccccc1)N[C@H](COC(N)=O)[C@H](O)c1ccc(O)c(O)c1` (relative stereo) [Compd. No. 189, DL-threo-1-(3,4-dihydroxyphenyl)-2-(1-methyl-3-phenylpropyl)-amino-3-carbamoyloxypropanol]: 98%.
